# Patent US8741940B2, “Microbicidal composition” (Rohm and Haas Company, priority 2005, dated 2014)
# Values joined by “and” are separate entries in the source; they are usually repeats but may differ in a detail not shown here. Identical values can stand only once. Like-named read-outs stand apart in the source and are kept apart here.
# Legend:
# Type in all cases: cell-based
# [1] = test system: Aspergillus niger (A. niger—ATCC 16404); test: Synergy test, microtiter plate high resolution MIC assay, mold in PDB medium; set-up: Qb (Second Component B) / Qa (First Component A): unit: ppm
# Method in brief: (§1)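 High-resolution microtiter MICs spanned 2 to 10,000 ppm active, tested alongside varying BBIT or MBIT as component A. E. coli was run at ~5×10^6/mL in M9GY (0.2% glucose, 0.1% yeast extract) at 30 °C; C. albicans and A. niger at 5×10^5/mL in PDB. Synergy index is Qa/QA + Qb/QB, with >1 indicating antagonism.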
# [2] = test system: Candida albicans (C. albicans—ATCC 10231); test: Synergy test, microtiter plate high resolution MIC assay, yeast in PDB medium; set-up: Qb (Second Component B) / Qa (First Component A): unit: ppm; conditions: for MIC of the component acting alone (QA / QB): C. albicans 10231, PDB, 25° C.
# Method in brief: as §1
# [3] = test system: Escherichia coli (E. coli—ATCC #8739); test: Synergy test, microtiter plate high resolution MIC assay, bacterium in M9GY medium; set-up: Qa (First Component A) / Qb (Second Component B): unit: ppm; conditions: for MIC of the component acting alone (QA / QB): E. coli 8739, M9GY, 30° C.
# Method in brief: as §1
# [4] = A=MBIT, B=BBIT, A. niger 16404 - PDB, 4 days
# [5] = A=MBIT, B=BBIT, C. albicans 10231 - PDB, 48 hours
# [6] = A=MBIT, B=BBIT, E. coli 8739 - M9GY, 24 hours
smiles,measurement,setting,value
"CCCCn1sc2ccccc2c1=O [BBIT, N-(n-butyl)-1,2-benzisothiazolin-3-one]",Qa (First Component A),[1],40
same,SI (synergy index),[1],1.00
same,MIC of the component acting alone (QA / QB),"[1]; A. niger 16404, PDB, 4 days, 25° C.",15 ppm
same,SI,"[1]; A. niger 16404 - PDB, 3 days, BBIT + hexylene glycol",1.00
same,Qa (First Component A = BBIT),"[1]; A. niger 16404 - PDB, 3 days, BBIT alone (Qb 0) or in mixture with hexylene glycol",15
same,SI,"[1]; A. niger 16404 - PDB, 3 days, BBIT with Methylparaben",1.00
same,SI,"[1]; A. niger 16404 - PDB, 3 days, BBIT with Phospholipid PTC",1.00
same,SI,"[1]; A. niger 16404 - PDB, 3 days, BBIT with Potassium sorbate",1.00
same,SI,"[1]; A. niger 16404 - PDB, 4 days, BBIT + hexetidine",1.00
same,Qa (First Component A = BBIT),"[1]; A. niger 16404 - PDB, 4 days, BBIT alone (Qb 0) or in mixture with hexetidine",20
same,SI,"[1]; A. niger 16404 - PDB, 4 days, BBIT with Pentylene glycol",1.00
same,SI,"[1]; A. niger 16404 - PDB, 4 days, BBIT with Phospholipid EFA",1.00
same,SI,"[1]; A. niger 16404 - PDB, 4 days, BBIT with Quaternium-15",1.00
same,SI,"[1]; A. niger 16404 - PDB, 7 days, BBIT + DMDMH",1.00
same,SI,"[1]; A. niger 16404 - PDB, 7 days, BBIT + DTBMA",1.00
same,SI,"[1]; A. niger 16404 - PDB, 7 days, BBIT + EDTA",1.00
same,Qa (First Component A = BBIT),"[1]; A. niger 16404 - PDB, 7 days, BBIT alone (Qb 0) or in mixture with DMDMH",80
same,Qa (First Component A = BBIT),"[1]; A. niger 16404 - PDB, 7 days, BBIT alone (Qb 0) or in mixture with DTBMA",40
same,Qa (First Component A = BBIT),"[1]; A. niger 16404 - PDB, 7 days, BBIT alone (Qb 0) or in mixture with EDTA",40
same,SI,"[1]; A. niger 16404 - PDB, 7 days, BBIT with Phenoxyethanol",1.00
same,SI,"[1]; A. niger 16404 - PDB, 7 days, BBIT with Propylparaben",1.00
same,SI,"[1]; A. niger 16404 - PDB, 7 days, BBIT with SDHA",1.00
same,SI,"[1]; A. niger 16404 - PDB, 7 days, BBIT with Sodium benzoate",1.00
same,Qb (Second Component B),[1]; [4],40
same,SI (synergy index),[1]; [4],1.00
same,Qa (First Component A),[2],10
same,SI (synergy index),[2],1.00
same,Qb (Second Component B),[2]; [5],6
same,SI (synergy index),[2]; [5],1.00
same,MIC of the component acting alone (QA / QB),[2]; 24 hours,7.5 ppm and 6 ppm and 8 ppm
same,MIC of the component acting alone (QA / QB),[2]; 48 hours,10 ppm and 7.5 ppm and 8 ppm
same,SI,"[2]; C. albicans 10231 - PDB, 24 hours, BBIT + DMDMH",1.00
same,SI,"[2]; C. albicans 10231 - PDB, 24 hours, BBIT + DTBMA",1.00
same,SI,"[2]; C. albicans 10231 - PDB, 24 hours, BBIT + EDTA",1.00
same,SI,"[2]; C. albicans 10231 - PDB, 24 hours, BBIT + hexamidine diisethionate",1.00
same,SI,"[2]; C. albicans 10231 - PDB, 24 hours, BBIT + hexylene glycol",1.00
same,Qa (First Component A = BBIT),"[2]; C. albicans 10231 - PDB, 24 hours, BBIT alone (Qb 0) or in mixture with DMDMH",7.5
same,Qa (First Component A = BBIT),"[2]; C. albicans 10231 - PDB, 24 hours, BBIT alone (Qb 0) or in mixture with DTBMA",15
same,Qa (First Component A = BBIT),"[2]; C. albicans 10231 - PDB, 24 hours, BBIT alone (Qb 0) or in mixture with EDTA",7.5
same,Qa (First Component A = BBIT),"[2]; C. albicans 10231 - PDB, 24 hours, BBIT alone (Qb 0) or in mixture with hexamidine diisethionate",10
same,Qa (First Component A = BBIT),"[2]; C. albicans 10231 - PDB, 24 hours, BBIT alone (Qb 0) or in mixture with hexylene glycol",10
same,SI,"[2]; C. albicans 10231 - PDB, 24 hours, BBIT with Methylparaben",1.00
same,SI,"[2]; C. albicans 10231 - PDB, 24 hours, BBIT with Pentylene glycol",1.00
same,SI,"[2]; C. albicans 10231 - PDB, 24 hours, BBIT with Phenoxyethanol",1.00
same,SI,"[2]; C. albicans 10231 - PDB, 24 hours, BBIT with Phospholipid EFA",1.00
same,SI,"[2]; C. albicans 10231 - PDB, 24 hours, BBIT with Phospholipid PTC",1.00
same,SI,"[2]; C. albicans 10231 - PDB, 24 hours, BBIT with Potassium sorbate",1.00
same,SI,"[2]; C. albicans 10231 - PDB, 24 hours, BBIT with Propylparaben",1.00
same,SI,"[2]; C. albicans 10231 - PDB, 24 hours, BBIT with Quaternium-15",1.00
same,SI,"[2]; C. albicans 10231 - PDB, 24 hours, BBIT with SDHA",1.00
same,SI,"[2]; C. albicans 10231 - PDB, 48 hours, BBIT with Sodium benzoate",1.00
same,SI,"[2]; C. albicans 10231 - PDB, 72 hours, BBIT + hexetidine",1.00
same,Qa (First Component A = BBIT),"[2]; C. albicans 10231 - PDB, 72 hours, BBIT alone (Qb 0) or in mixture with hexetidine",15
same,Qa (First Component A),[3],200
same,SI (synergy index),[3],1.00
same,Qb (Second Component B),[3]; [6],100
same,SI (synergy index),[3]; [6],1.00
same,MIC of the component acting alone (QA / QB),[3]; 24 hours,200 ppm and 100 ppm
same,MIC of the component acting alone (QA / QB),[3]; 48 hours,100 ppm
same,MIC of the component acting alone (QA / QB),[3]; 72 hours,100 ppm
same,SI,"[3]; E. coli 8739 - M9GY, 24 hours, BBIT + hexylene glycol",1.00
same,Qa (First Component A = BBIT),"[3]; E. coli 8739 - M9GY, 24 hours, BBIT alone (Qb 0) or in mixture with hexylene glycol",100
same,SI,"[3]; E. coli 8739 - M9GY, 24 hours, BBIT with Pentylene glycol",1.00
same,SI,"[3]; E. coli 8739 - M9GY, 24 hours, BBIT with Potassium sorbate",1.00
same,SI,"[3]; E. coli 8739 - M9GY, 24 hours, BBIT with Propylparaben",1.00
same,SI,"[3]; E. coli 8739 - M9GY, 24 hours, BBIT with SDHA",1.00
same,SI,"[3]; E. coli 8739 - M9GY, 24 hours, BBIT with Sodium benzoate",1.00
same,SI,"[3]; E. coli 8739 - M9GY, 48 hours, BBIT + DTBMA",1.00
same,SI,"[3]; E. coli 8739 - M9GY, 48 hours, BBIT + hexamidine diisethionate",1.00
same,Qa (First Component A = BBIT),"[3]; E. coli 8739 - M9GY, 48 hours, BBIT alone (Qb 0) or in mixture with DTBMA",100
same,Qa (First Component A = BBIT),"[3]; E. coli 8739 - M9GY, 48 hours, BBIT alone (Qb 0) or in mixture with hexamidine diisethionate",6
same,SI,"[3]; E. coli 8739 - M9GY, 48 hours, BBIT with Phospholipid EFA",1.00
same,SI,"[3]; E. coli 8739 - M9GY, 72 hours, BBIT + DMDMH",1.00
same,SI,"[3]; E. coli 8739 - M9GY, 72 hours, BBIT + EDTA",1.00
same,SI,"[3]; E. coli 8739 - M9GY, 72 hours, BBIT + hexetidine",1.00
same,Qa (First Component A = BBIT),"[3]; E. coli 8739 - M9GY, 72 hours, BBIT alone (Qb 0) or in mixture with DMDMH",100
same,Qa (First Component A = BBIT),"[3]; E. coli 8739 - M9GY, 72 hours, BBIT alone (Qb 0) or in mixture with EDTA",100
same,Qa (First Component A = BBIT),"[3]; E. coli 8739 - M9GY, 72 hours, BBIT alone (Qb 0) or in mixture with hexetidine",80
same,SI,"[3]; E. coli 8739 - M9GY, 72 hours, BBIT with Methylparaben",1.00
same,SI,"[3]; E. coli 8739 - M9GY, 72 hours, BBIT with Phenoxyethanol",1.00
same,SI,"[3]; E. coli 8739 - M9GY, 72 hours, BBIT with Phospholipid PTC",1.00
same,SI,"[3]; E. coli 8739 - M9GY, 72 hours, BBIT with Quaternium-15",1.00
